The source of these data is publication PMC7083225 (Cell Chemical Biology, 2020).

B1: VSD2-NavAb chimeric channel (hNav1.7 VSD2 sequences fused to a NavAb scaffold) (other)
chain: MYLRITNIVESSFFTKFIIYLIVLNTLFMAMEHHPMTEEFKNVLAIGNLVFTGIFAIEIILRIYVHRISFFKDPWSLFDSLIVTLSLVELFLADVEGLSVLRSFRLLRVFRLVTAVPQMRKIVSALISVIPGMLSVIALMTLFFYIFAIMATQLFGERFPEWFGTLGESFYTLFQVMTLESWSMGIVRPLMEVYPYAWVFFIPFIFVVTFVMINLVVAICVDAMAILNQKEEQHIIDEVQSHEDNINNEIIKLREEIVELKELIKTSLKN
notes: not shown: FLAG, N-terminal, kept

human Nav1.7, sequence (Q15858 1-1977 isoform Q15858-4): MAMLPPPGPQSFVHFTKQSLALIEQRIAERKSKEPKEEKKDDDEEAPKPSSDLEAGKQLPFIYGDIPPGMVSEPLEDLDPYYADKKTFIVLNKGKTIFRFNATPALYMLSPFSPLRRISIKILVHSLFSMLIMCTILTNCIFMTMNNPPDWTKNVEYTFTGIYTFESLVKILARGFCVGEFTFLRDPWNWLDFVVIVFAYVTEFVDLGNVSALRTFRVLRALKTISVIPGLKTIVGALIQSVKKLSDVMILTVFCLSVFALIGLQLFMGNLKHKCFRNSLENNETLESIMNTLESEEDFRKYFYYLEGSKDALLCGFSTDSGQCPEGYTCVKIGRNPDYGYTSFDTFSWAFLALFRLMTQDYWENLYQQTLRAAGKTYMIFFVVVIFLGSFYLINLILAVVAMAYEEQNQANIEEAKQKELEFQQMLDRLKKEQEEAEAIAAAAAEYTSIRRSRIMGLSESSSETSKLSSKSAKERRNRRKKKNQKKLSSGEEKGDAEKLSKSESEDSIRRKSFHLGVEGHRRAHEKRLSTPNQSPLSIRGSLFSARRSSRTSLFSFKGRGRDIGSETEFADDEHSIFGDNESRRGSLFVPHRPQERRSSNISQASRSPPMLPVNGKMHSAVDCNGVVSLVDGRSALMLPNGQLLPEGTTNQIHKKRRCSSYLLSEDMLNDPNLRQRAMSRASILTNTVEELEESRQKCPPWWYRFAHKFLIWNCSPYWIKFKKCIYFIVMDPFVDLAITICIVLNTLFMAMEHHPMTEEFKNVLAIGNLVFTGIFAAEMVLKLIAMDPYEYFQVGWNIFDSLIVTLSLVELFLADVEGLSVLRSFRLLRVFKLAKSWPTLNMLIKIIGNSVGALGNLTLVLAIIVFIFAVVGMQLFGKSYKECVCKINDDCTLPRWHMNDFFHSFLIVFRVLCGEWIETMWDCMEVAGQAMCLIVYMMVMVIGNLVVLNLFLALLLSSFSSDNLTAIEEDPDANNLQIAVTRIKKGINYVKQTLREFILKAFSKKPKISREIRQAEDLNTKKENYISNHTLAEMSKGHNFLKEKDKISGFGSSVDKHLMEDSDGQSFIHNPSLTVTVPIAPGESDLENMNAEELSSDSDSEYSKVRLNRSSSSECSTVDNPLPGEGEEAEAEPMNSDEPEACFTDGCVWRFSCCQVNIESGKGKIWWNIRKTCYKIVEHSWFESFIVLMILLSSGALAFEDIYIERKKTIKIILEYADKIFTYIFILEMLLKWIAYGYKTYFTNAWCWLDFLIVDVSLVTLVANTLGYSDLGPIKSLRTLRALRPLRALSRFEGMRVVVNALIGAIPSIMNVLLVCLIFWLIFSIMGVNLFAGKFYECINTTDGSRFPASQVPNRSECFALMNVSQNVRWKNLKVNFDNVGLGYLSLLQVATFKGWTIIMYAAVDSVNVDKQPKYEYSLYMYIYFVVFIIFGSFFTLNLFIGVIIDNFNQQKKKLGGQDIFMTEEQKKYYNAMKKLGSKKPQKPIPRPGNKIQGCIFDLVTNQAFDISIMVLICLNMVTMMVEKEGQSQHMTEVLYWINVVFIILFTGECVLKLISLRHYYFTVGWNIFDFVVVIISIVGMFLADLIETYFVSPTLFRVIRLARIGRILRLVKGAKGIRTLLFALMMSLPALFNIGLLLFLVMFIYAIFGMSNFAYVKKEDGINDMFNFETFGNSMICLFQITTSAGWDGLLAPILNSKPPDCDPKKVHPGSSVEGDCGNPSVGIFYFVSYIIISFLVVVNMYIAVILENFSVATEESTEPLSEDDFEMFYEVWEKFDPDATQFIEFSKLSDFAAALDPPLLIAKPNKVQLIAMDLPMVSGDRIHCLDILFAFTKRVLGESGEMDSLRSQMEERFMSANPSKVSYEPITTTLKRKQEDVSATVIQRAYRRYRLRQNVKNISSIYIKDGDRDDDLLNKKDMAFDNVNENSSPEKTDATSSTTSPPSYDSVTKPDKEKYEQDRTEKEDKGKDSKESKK

The first series has as its target human Nav1.7 (Homo sapiens, UniProt Q15858). Description: Automated patch-clamp electrophysiology, CHO cells expressing Nav1.7. It counts as cell-based. Particulars: SyncroPatch 768PE automated patch clamp; CHO stable cell line expressing human Nav1.7; holding -120 mV, 10 ms pulse to -10 mV every 2 s; 25 min compound; four-parameter Hill fit, each point n = 3-20; read-out: IC50 (nM), Nav1.7 inhibition. Here is the method: The obtained photoprobes were evaluated in a patch-clamp assay using CHO cells expressing Nav1.7 (Figure 1D).
For electrophysiological recordings, the human Nav1.7 (XM_011511618) expressing CHO stable cell line (Anaxon, Switzerland) was cultured in Ham’s F12 medium supplemented with 10% FBS, 2 mM L-Glutamine and required selection antibiotic in 5% CO2 at 37°C.
For all Nav channel recordings, the intracellular solution contained (in mM): 50 CsCl, 60 CsF, 10 NaCl, 20 EGTA and 10 HEPES (pH 7.2, osmolarity 285 mOsm), and extracellular solution contained (in mM): 80 NaCl, 60 NMDG, 4 KCl, 2 CaCl2, 1 MgCl2, 5 glucose and 10 HEPES (pH 7.4, osmolarity 300 mOsm). Automated patch clamp (APC) recordings were performed by using SyncroPatch 768PE (Nanion Technologies, Germany), with PatchController384 V1.5.2 and DataController384 V1.5.0 software for pulse generation and data collection. Currents were sampled at 10 kHz and filtered with Bessel filter. Series resistance was compensated 80% with leak subtraction. Seal resistance (Rseal) was calculated using built-in protocols, and high-quality recoding data was obtained by auto filtering 3 quality control criteria: cell catching (>10 MΩ), seal resistance (>500 MΩ) and baseline current amplitude (>500 pA), and follow with manual inspection. The voltage protocol for all toxin pharmacological tests was set with holding membrane potential (Vm) at -120 mV, eliciting a 10 ms pulse to -10 mV every 2 s, recording 5 min for baseline and followed with examining compound effect for 25 min. Nav channel inhibition was calculated as the percentage of peak current (I) decrease from before compound application (I_Baseline) to the end of 25 minutes compound application (I_End) and both being normalized to the end of experiment full block current (I_Fullblock) using this following equation: Block%=[1−(Iend−Ifullblock/Ibaseline−Ifullblock)]×100%
All Nav channel inhibitions were presented as mean ± standard error of the mean from at least three independent trials.
A general note: The patch-clamp technique gives a direct electrical read-out from membranes.
In general, IC50 refers to the concentration that gives 50% inhibition. As for `CC[C@H](C)[C@H](NC(=O)[C@H](CCC(N)=O)NC(=O)[C@H](Cc1ccc(O)cc1)NC(=O)[C@H](CCCCN)NC(=O)[C@@H]1CSSC[C@@H]2NC(=O)[C@H](CCC(N)=O)NC(=O)[C@H](CC(=O)O)NC(=O)[C@H](CC(N)=O)NC(=O)[C@H](CO)NC(=O)[C@@H]3CCCN3C(=O)[C@H](CC(N)=O)NC(=O)[C@@H]3CSSC[C@H](NC(=O)[C@H](C(C)C)NC(=O)[C@H](CC(C)C)NC(=O)[C@H](CCCCN)NC(=O)[C@H](CO)NC(=O)[C@H](CO)NC(=O)[C@H](CCCCN)NC(=O)[C@H](CSSC[C@H](NC(=O)[C@@H](N)CCC(=O)O)C(=O)N[C@@H](CC(C)C)C(=O)N[C@@H](CCC(=O)O)C(=O)N[C@@H](CCC4(C)N=N4)C(=O)N[C@@H](Cc4ccccc4)C(=O)N[C@@H](CCCCN)C(=O)N[C@@H](C)C(=O)N3)NC2=O)C(=O)N[C@@H](CO)C(=O)N[C@@H](CCCNC(=N)N)C(=O)N[C@@H](CCCCN)C(=O)N[C@@H]([C@@H](C)O)C(=O)N[C@@H](CCCNC(=N)N)C(=O)N[C@@H](Cc2c[nH]c3ccccc23)C(=O)N1)C(N)=O` [HTMp5], the IC50 was determined as 41 nM.

As for `CC[C@H](C)[C@H](NC(=O)[C@H](CCC(N)=O)NC(=O)[C@H](Cc1ccc(O)cc1)NC(=O)[C@H](CCCCN)NC(=O)[C@@H]1CSSC[C@@H]2NC(=O)[C@H](CCC(N)=O)NC(=O)[C@H](CC(=O)O)NC(=O)[C@H](CC(N)=O)NC(=O)[C@H](CO)NC(=O)[C@@H]3CCCN3C(=O)[C@H](CC(N)=O)NC(=O)[C@@H]3CSSC[C@H](NC(=O)[C@H](C(C)C)NC(=O)[C@H](CC(C)C)NC(=O)[C@H](CCCCN)NC(=O)[C@H](CO)NC(=O)[C@H](CO)NC(=O)[C@H](CCCCN)NC(=O)[C@H](CSSC[C@H](NC(=O)[C@@H](N)CCC(=O)O)C(=O)N[C@@H](CC(C)C)C(=O)N[C@@H](CCC(=O)O)C(=O)N[C@@H]([C@@H](C)CC)C(=O)N[C@@H](Cc4ccccc4)C(=O)N[C@@H](CCC4(C)N=N4)C(=O)N[C@@H](C)C(=O)N3)NC2=O)C(=O)N[C@@H](CO)C(=O)N[C@@H](CCCNC(=N)N)C(=O)N[C@@H](CCCCN)C(=O)N[C@@H]([C@@H](C)O)C(=O)N[C@@H](CCCNC(=N)N)C(=O)N[C@@H](Cc2c[nH]c3ccccc23)C(=O)N1)C(N)=O` [HTMp7], the IC50 was determined as 40 nM. The same measure, in the same setting: the same measure for `CC[C@H](C)[C@H](NC(=O)[C@H](CCC(N)=O)NC(=O)[C@H](Cc1ccc(O)cc1)NC(=O)[C@H](CCCCN)NC(=O)[C@@H]1CSSC[C@@H]2NC(=O)[C@H](CCC(N)=O)NC(=O)[C@H](CC(=O)O)NC(=O)[C@H](CC(N)=O)NC(=O)[C@H](CO)NC(=O)[C@@H]3CCCN3C(=O)[C@H](CC(N)=O)NC(=O)[C@@H]3CSSC[C@H](NC(=O)[C@H](C(C)C)NC(=O)[C@H](CC(C)C)NC(=O)[C@H](CCC4(C)N=N4)NC(=O)[C@H](CO)NC(=O)[C@H](CO)NC(=O)[C@H](CCCCN)NC(=O)[C@H](CSSC[C@H](NC(=O)[C@@H](N)CCC(=O)O)C(=O)N[C@@H](CC(C)C)C(=O)N[C@@H](CCC(=O)O)C(=O)N[C@@H]([C@@H](C)CC)C(=O)N[C@@H](Cc4ccccc4)C(=O)N[C@@H](CCCCN)C(=O)N[C@@H](C)C(=O)N3)NC2=O)C(=O)N[C@@H](CO)C(=O)N[C@@H](CCCNC(=N)N)C(=O)N[C@@H](CCCCN)C(=O)N[C@@H]([C@@H](C)O)C(=O)N[C@@H](CCCNC(=N)N)C(=O)N[C@@H](Cc2c[nH]c3ccccc23)C(=O)N1)C(N)=O` [HTMp21]: 35 nM; for `CC[C@H](C)[C@H](NC(=O)[C@H](CCC(N)=O)NC(=O)[C@H](Cc1ccc(O)cc1)NC(=O)[C@H](CCCCN)NC(=O)[C@@H]1CSSC[C@@H]2NC(=O)[C@H](CCC(N)=O)NC(=O)[C@H](CC(=O)O)NC(=O)[C@H](CC(N)=O)NC(=O)[C@H](CO)NC(=O)[C@@H]3CCCN3C(=O)[C@H](CC(N)=O)NC(=O)[C@@H]3CSSC[C@H](NC(=O)[C@H](C(C)C)NC(=O)[C@H](CC(C)C)NC(=O)[C@H](CCCCN)NC(=O)[C@H](CO)NC(=O)[C@H](CO)NC(=O)[C@H](CCCCN)NC(=O)[C@H](CSSC[C@H](NC(=O)[C@@H](N)CCC(=O)O)C(=O)N[C@@H](CC(C)C)C(=O)N[C@@H](CCC(=O)O)C(=O)N[C@@H]([C@@H](C)CC)C(=O)N[C@@H](Cc4ccccc4)C(=O)N[C@@H](CCCCN)C(=O)N[C@@H](C)C(=O)N3)NC2=O)C(=O)N[C@@H](CO)C(=O)N[C@@H](CCCNC(=N)N)C(=O)N[C@@H](CCC2(C)N=N2)C(=O)N[C@@H]([C@@H](C)O)C(=O)N[C@@H](CCCNC(=N)N)C(=O)N[C@@H](Cc2c[nH]c3ccccc23)C(=O)N1)C(N)=O` [HTMp27]: 80 nM. Consider `CC[C@H](C)[C@H](NC(=O)[C@H](CCC(N)=O)NC(=O)[C@H](Cc1ccc(O)cc1)NC(=O)[C@H](CCCCN)NC(=O)[C@@H]1CSSC[C@@H]2NC(=O)[C@H](CCC(N)=O)NC(=O)[C@H](CC(=O)O)NC(=O)[C@H](CC(N)=O)NC(=O)[C@H](CO)NC(=O)[C@@H]3CCCN3C(=O)[C@H](CC(N)=O)NC(=O)[C@@H]3CSSC[C@H](NC(=O)[C@H](C(C)C)NC(=O)[C@H](CC(C)C)NC(=O)[C@H](CCCCN)NC(=O)[C@H](CO)NC(=O)[C@H](CO)NC(=O)[C@H](CCCCN)NC(=O)[C@H](CSSC[C@H](NC(=O)[C@@H](N)CCC(=O)O)C(=O)N[C@@H](CC(C)C)C(=O)N[C@@H](CCC(=O)O)C(=O)N[C@@H]([C@@H](C)CC)C(=O)N[C@@H](Cc4ccccc4)C(=O)N[C@@H](CCCCN)C(=O)N[C@@H](C)C(=O)N3)NC2=O)C(=O)N[C@@H](CO)C(=O)N[C@@H](CCCNC(=N)N)C(=O)N[C@@H](CCCCN)C(=O)N[C@@H]([C@@H](C)O)C(=O)N[C@@H](CCC2(C)N=N2)C(=O)N[C@@H](Cc2c[nH]c3ccccc23)C(=O)N1)C(N)=O` [HTMp29], for which the IC50 is 68 nM. Take `CC[C@H](C)[C@@H]1NC(=O)[C@H](CCC(=O)O)NC(=O)[C@H](CC(C)C)NC(=O)[C@@H](NC(=O)[C@@H](N)CCC(=O)O)CSSC[C@@H]2NC(=O)[C@@H]3CSSC[C@@H](C(=O)N[C@@H](CCCCN)C(=O)N[C@@H](Cc4ccc(O)cc4)C(=O)N[C@@H](CCC(N)=O)C(=O)N[C@@H](CCC4(C)N=N4)C(N)=O)NC(=O)[C@H](Cc4c[nH]c5ccccc45)NC(=O)[C@H](CCCNC(=N)N)NC(=O)[C@H]([C@@H](C)O)NC(=O)[C@H](CCCCN)NC(=O)[C@H](CCCNC(=N)N)NC(=O)[C@H](CO)NC(=O)[C@H](CSSC[C@H](NC(=O)[C@H](C)NC(=O)[C@H](CCCCN)NC(=O)[C@H](Cc4ccccc4)NC1=O)C(=O)N[C@@H](CC(N)=O)C(=O)N1CCC[C@H]1C(=O)N[C@@H](CO)C(=O)N[C@@H](CC(N)=O)C(=O)N[C@@H](CC(=O)O)C(=O)N[C@@H](CCC(N)=O)C(=O)N3)NC(=O)[C@H](C(C)C)NC(=O)[C@H](CC(C)C)NC(=O)[C@H](CCCCN)NC(=O)[C@H](CO)NC(=O)[C@H](CO)NC(=O)[C@H](CCCCN)NC2=O` [HTMp35]: the IC50 turned out to be 13 nM.

The next series concerns the molecule itself. Briefly: SEC; size-exclusion chromatography after anti-FLAG affinity purification, in GDN detergent.
Conditions: not given
In general terms: Size exclusion chromatography separates by hydrodynamic size, large species first.
As to B1, the binding result is recorded as “binds”.
